Legend:
Format in all cases: biochemical
Settings in all cases: TR-FRET coactivator (SRC-1) recruitment
[1] = target: T1, PPARα receptor (GST-hPPARα LBD) (Homo sapiens, UniProt Q07869); test: PPARα functional binding assay (CARLA, TR-FRET)
T1 construct: made in house; host or cells: E. coli BL21 (DE3), pGEX vector
T1 sequence (Q07869 167-468): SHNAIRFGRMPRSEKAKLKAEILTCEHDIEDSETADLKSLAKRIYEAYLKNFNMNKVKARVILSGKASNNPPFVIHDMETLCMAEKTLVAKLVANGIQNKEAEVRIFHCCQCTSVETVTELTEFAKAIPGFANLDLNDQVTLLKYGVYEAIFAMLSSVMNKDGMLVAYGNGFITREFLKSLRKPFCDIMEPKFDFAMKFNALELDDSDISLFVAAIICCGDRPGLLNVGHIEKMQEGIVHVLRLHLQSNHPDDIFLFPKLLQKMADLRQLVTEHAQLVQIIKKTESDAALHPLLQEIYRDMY
Experimental: (§1) The in vitro functional binding to the PPARα, PPARδ and PPARγ receptors is determined as follows:
(§2) The functional binding assays for the PPARα, PPARδ and PPARγ receptors are a variation of the coactivator-dependent receptor ligand assay (CARLA) (see Krey et al., “Fatty Acids, Eicosanoids, and Hypolipidemic Agents Identified as Ligands of Peroxisome Proliferator-Activated Receptors by Coactivator-Dependent Receptor Ligand Assay”, Molecular Endocrinology, Vol. 11, pp. 779–791 (1997)). The present CARLA assays use a TR-FRET detection method previously reviewed (see Hemmila, “LANCE: Homogeneous Assay Platform for HTS”, J. Biomol. Screening, Vol. 4, pp. 303–307 (1999); Mathis, “HTRF Technology”, J. Biomol. Screening, Vol. 4, pp. 309–313 (1999)). All assays included 3 nM of the glutathione-S-transferase (GST) fusion proteins of either the hPPARα ligand binding domain (LBD) (amino acids 167–468) (GST-hPPARα LBD), GST-hPPARδ LBD (amino acids 139–442) or GST-hPPARγ LBD (amino acids 175–476); 3 nM Eu-labeled anti-GST antibody (Wallac); 30 nM biotinylated steroid receptor coactivator-1 (SRC-1) peptide (an N-terminal biotinylated peptide, […], derived from amino acids 676–700 of SRC-1); and 10 nM streptavidin-labelled allophycocyanin (APC; Prozyme). The binding of a ligand to a PPAR LBD alters the conformation of the LBD and permits the biotinylated SRC-1 peptide to bind. This brings the Eu-labeled anti-GST antibody and the strepavidin-labeled APC in close proximity, thereby facilitating fluorescence energy transfer. The biotinylated SRC-1 peptide is prepared by standard solid-phase peptide synthetic methods. The GST-PPAR LBDs are expressed in pGEX vectors (Amersham Pharmacia) in the E. coli strain BL21 (DE3) using standard expression conditions at 18° C. In some cases the GST-PPAR LBDs are co-expressed with groESL. […] After mixing all components, the reaction mixture stands for 3 hours at room temperature before reading the TR-FRET (Time-Resolved Fluorescence Resonance Energy Transfer) signal on a Wallac Victor 2 plate reader (measuring the ratio of signals at […]). […]

[2] = target: T2, PPARγ receptor (GST-hPPARγ LBD) (Homo sapiens, UniProt P37231); test: PPARγ functional binding assay (CARLA, TR-FRET)
T2 construct: GST-hPPARγ LBD (amino acids 175–476); made in house; host or cells: E. coli BL21 (DE3), pGEX vector
T2 sequence (P37231 175-476 isoform P37231-2): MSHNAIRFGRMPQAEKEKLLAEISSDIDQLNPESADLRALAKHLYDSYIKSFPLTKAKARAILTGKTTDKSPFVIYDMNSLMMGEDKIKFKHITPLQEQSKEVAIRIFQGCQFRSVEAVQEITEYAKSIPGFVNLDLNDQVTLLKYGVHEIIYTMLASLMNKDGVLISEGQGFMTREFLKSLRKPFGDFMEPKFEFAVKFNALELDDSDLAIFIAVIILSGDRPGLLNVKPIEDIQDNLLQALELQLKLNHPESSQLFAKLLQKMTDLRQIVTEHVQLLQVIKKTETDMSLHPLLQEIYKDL
Experimental: as §1, §2

[3] = target: T3, PPARδ receptor (GST-hPPARδ LBD) (Homo sapiens, UniProt Q03181); test: PPARδ functional binding assay (CARLA, TR-FRET)
T3 construct: GST-hPPARδ LBD (amino acids 139–442); made in house; host or cells: E. coli BL21 (DE3), pGEX vector
T3 sequence (Q03181 139-441 limits assumed): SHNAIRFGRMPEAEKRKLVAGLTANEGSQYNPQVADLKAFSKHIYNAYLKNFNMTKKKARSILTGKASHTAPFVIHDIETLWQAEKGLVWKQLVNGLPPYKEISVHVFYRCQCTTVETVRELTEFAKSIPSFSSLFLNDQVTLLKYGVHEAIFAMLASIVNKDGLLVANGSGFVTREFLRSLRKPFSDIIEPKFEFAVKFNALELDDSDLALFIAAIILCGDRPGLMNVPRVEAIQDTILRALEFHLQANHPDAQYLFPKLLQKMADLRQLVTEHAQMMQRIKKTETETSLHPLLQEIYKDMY
T3 sequence (Q15788 676-700 partner limits assumed): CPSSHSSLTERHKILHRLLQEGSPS
Experimental: as §1, §2

EC50 [1]	EC50 [2]	EC50 [3]	Compound
~27 nM	~23 nM	~173 nM	CCCc1cc(Oc2ccccc2)ccc1OCCCOc1ccc(S(=O)(=O)N2c3ccccc3C[C@@H]2C(=O)O)cc1 [Example 1, (R)-1-{4-[3-(4-Phenoxy-2-propyl-phenoxy)-propoxy]-benzenesulfonyl}-2,3-dihydro-1H-indole-2-carboxylic acid]
~3 nM	~3 nM	~1250 nM	Cc1oc(-c2ccccc2)nc1COc1ccc(S(=O)(=O)N2CC[C@@H]2C(=O)O)cc1 [Example 5–10, (R)-1-[4-(5-Methyl-2-phenyl-oxazol-4-ylmethoxy)-benzenesulfonyl]-azetidine-2-carboxylic acid]
~7 nM	~2 nM	~1160 nM	Cc1oc(-c2ccccc2)nc1COc1ccc(S(=O)(=O)N2CCC[C@@H]2C(=O)O)cc1 [Example 6–39, (R)-1-[4-(5-Methyl-2-phenyl-oxazol-4-ylmethoxy)-benzenesulfonyl]-pyrrolidine-2-carboxylic acid]

From US7183304B2, “Heterocyclic compounds and methods of use” (Novartis AG, priority 2001, dated 2007)
